Results published in ChEMBL document CHEMBL5241089, “Matrix metalloproteinases inhibitors in idiopathic pulmonary fibrosis: Medicinal chemistry perspectives” (Eur J Med Chem, 2021).

Key:
[1] = molecular target: T1, Stromelysin-2 (Homo sapiens, UniProt P09238); test: Inhibition of MMP-10 (unknown origin)
[2] = molecular target: T1, Stromelysin-2; test: Inhibition of MMP10 (unknown origin) using FRET peptide

T1 sequence (P09238 whole entry): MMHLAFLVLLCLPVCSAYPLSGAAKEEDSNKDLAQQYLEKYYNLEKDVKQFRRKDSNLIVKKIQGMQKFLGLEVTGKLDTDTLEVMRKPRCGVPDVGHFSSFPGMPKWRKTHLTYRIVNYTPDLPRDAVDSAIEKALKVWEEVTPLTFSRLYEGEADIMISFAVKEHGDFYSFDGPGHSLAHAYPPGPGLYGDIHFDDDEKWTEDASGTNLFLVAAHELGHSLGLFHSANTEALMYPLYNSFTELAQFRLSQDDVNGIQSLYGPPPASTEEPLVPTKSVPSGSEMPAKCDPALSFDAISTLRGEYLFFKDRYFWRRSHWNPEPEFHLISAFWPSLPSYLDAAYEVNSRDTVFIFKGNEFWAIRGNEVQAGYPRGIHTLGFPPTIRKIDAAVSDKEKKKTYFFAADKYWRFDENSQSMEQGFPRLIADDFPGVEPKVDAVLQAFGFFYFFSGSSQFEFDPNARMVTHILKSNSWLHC

SMILES | IC50 [1] [µM] | IC50 [2] [µM]
CC(=O)N1c2nc(C)cc(=O)n2[C@H](c2ccc(Br)cc2)N1C(C)=O | 0.024 | 
O=C(O)CCCCCCCCOc1ccc(CC(=O)Nc2ccc3c(c2)C(=O)N(Cc2ccccc2)C3=O)cc1 |  | 1.2
